Entries after “also recorded” stand apart in the source; their conditions may differ. Where two headings read alike, the source gives them in different places.

Assay [1] concerns the target T1, Giardia flavohemoglobin (gFlHb) (Giardia intestinalis, UniProt E2RTZ4).
T1 sequence (E2RTZ4 1-458): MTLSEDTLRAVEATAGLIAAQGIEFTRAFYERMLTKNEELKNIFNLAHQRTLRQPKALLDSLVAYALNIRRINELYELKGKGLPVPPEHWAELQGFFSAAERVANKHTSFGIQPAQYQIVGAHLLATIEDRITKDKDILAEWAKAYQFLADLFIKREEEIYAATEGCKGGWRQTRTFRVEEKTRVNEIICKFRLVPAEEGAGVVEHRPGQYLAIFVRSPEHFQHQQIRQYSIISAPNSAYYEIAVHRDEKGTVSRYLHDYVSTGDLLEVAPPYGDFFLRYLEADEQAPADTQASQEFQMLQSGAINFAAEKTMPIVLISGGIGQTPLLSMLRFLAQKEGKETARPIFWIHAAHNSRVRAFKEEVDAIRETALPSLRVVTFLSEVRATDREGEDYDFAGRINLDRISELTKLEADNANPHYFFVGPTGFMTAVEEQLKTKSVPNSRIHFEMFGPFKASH
The assay can be described thus: biochemical. How it is done:
To determine NOD activity, Michaelis constant, and enzyme inhibition, rate assays were performed on a World Precision Instruments free radical analyzer (WPI, Sarasota, FL, USA) equipped with an NO-sensitive electrode and a temperature probe, connected to an analog digital converter controlled by Labscribe software, version 4 (iWorx, Dover, NH, USA).
Assays were conducted on a 6 mL scale in cropped 50 mL Falcon tubes in a buffer containing 0.1 M Bis-Tris (pH 6.5) and 100 μM NADH. To minimize protein adhesion to the walls of the chamber, 0.25 mg/mL bovine serum albumin (BSA; Fisher Scientific, Ottawa, ON, Canada) was added. […] Reactions were run at 37 °C in a stirred cell block heater with a four-placed machined aluminum block that matched the taper of the Falcon tubes. With this block arrangement up to four assay solutions could be warmed to the desired temperature beforehand. Upon thermal equilibration to 37 °C, the NO donor compound PROLI-NONOate (Cayman Chemical, Ann Arbor, MI, USA) prepared in 10 mM NaOH was added; 2 moles of NO are released per mole of donor. At the peak of NO release, which occurred within several seconds, flavohemoglobin and FAD were added to a final concentration of 2 nM and 10 nM, respectively. NOD activity was measured as the initial rate of NO signal decrease over the first 15 to 30 s of the reaction. […] Rate data were fitted to the Michaelis–Menten equation by nonlinear regression using Graphpad Prism software, version 9.4.1 (Dotmatics, Boston MA, USA).
(§1) The inhibitor was included in the assay solution before the addition of PROLI-NONOate. Inhibitors were also preincubated in the enzyme stock solutions at the same concentration. […] All inhibition experiments were done using the same enzyme preparations. Each assay at a particular concentration of inhibitor was measured in triplicate or more. […] To determine inhibition constants Ki, rate data obtained at different inhibitor concentrations were fit to the equation for non-competitive inhibition nonlinear regression (Equation (1)) using Graphpad Prism software. (1) v=Vmax/(Km,NO+[NO])1+[I]/Ki

Assay [2] has as its target T2, E. coli flavohemoglobin (Hmp) (Escherichia coli, UniProt P24232). Briefly: Nitric oxide dioxygenase (NOD) inhibition assay, Hmp. Type of assay: biochemical. The following applies: for Ki / TN (turnover number from the inhibition fit), Hmp: pH 6.5, 37 °C. As to the method: as §1
For assay [3], the target named is T1, Giardia flavohemoglobin (gFlHb). The assay can be described thus: NOD activity and Michaelis constants, gFlHb. Type of assay: biochemical. Particulars: pH 6.5, 37 °C.
Assay [4] addresses T2, E. coli flavohemoglobin (Hmp). Set-up: method as in PMID 10777548. The following applies: 37 °C and pH 7; cited from earlier work.
The target of assay [5] is ferric gFlHb (Giardia intestinalis, UniProt E2RTZ4). Particulars: read-out: Binding constant KD, ferric gFlHb; optical titration, 0.1 M Bis-Tris pH 6.5, 3.5 μM flavohemoglobin, nitrite 0 to 750 μM.
Procedure: (§2) Titrations of ferric gFlHb and Hmp were performed in 0.1 M Bis-Tris buffer (BioShop, Burlington, ON, Canada) pH 6.5 on a Cary 400 Bio UV-visible spectrophotometer (Agilent Technologies, Mississauga, ON, Canada).
In assay [6] the target is ferric Hmp (Escherichia coli, UniProt P24232). The following applies: optical titration, 0.1 M Bis-Tris pH 6.5.
Procedure: as §2
The target of assay [7] is T1, Giardia flavohemoglobin (gFlHb). The following applies: cited from earlier work.
Setting [8] is: pH 6.5, 37 °C, 100 μM NADH, 1 μM NO.
Setting [9] is: pH 6.5, 37 °C, 100 μM NADH, 1 μM NO, imidazole and nitrite: Ki of the inhibitor-sensitive phase of a biphasic fit, read-out: Nitric oxide dioxygenase inhibition constant Ki, gFlHb.

T2 sequence (P24232 whole entry): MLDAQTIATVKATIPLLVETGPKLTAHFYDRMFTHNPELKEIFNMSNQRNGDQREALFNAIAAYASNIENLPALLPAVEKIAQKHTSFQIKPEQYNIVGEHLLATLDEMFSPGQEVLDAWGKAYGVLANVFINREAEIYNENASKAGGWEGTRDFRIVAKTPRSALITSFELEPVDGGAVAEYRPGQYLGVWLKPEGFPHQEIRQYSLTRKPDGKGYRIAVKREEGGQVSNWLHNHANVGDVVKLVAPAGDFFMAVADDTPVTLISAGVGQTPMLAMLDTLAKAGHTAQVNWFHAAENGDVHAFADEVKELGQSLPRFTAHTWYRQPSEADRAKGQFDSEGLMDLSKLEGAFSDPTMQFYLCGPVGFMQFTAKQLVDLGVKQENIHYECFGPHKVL
Chain of ferric Hmp (P24232 whole entry): as above

As for `Cn1ccnc1` [1-methylimidazole], the Ki (in general, the equilibrium dissociation constant of an inhibitor or competing ligand from its target) in assay [1] is 1200 ± 300 µM; in assay [1] (Inhibition constant, gFlHb (bound), NOD inhibition, pH 6.5, 37 °C) it was > 1000 µM; in assay [2] (Inhibition constant, Hmp (bound), NOD inhibition), > 1000 µM; in assay [2] (Nitric oxide dioxygenase inhibition constant Ki, Hmp, 100 μM NADH, 1 μM NO, imidazole: Ki of the inhibitor-sensitive phase of a biphasic fit), 1400 ± 250 µM. Also, the “TN (turnover number from the inhibition fit), gFlHb” value in assay [1] (setting [8]) came to 25 ± 1 s⁻¹. The “TN (turnover number from the inhibition fit), Hmp” value in assay [2] (100 μM NADH, 1 μM NO) stood at 38 ± 2 s⁻¹.

With `c1c[nH]cn1` [Imidazole, imidazole], in assay [1] (setting [8]), the “TN (turnover number from the inhibition fit), gFlHb” value was found to be 22 ± 1 s⁻¹. Moreover, the Ki in assay [1] (setting [9]) was 20 ± 6 µM; in assay [2] (read-out: Nitric oxide dioxygenase inhibition constant Ki, Hmp, 100 μM NADH, 1 μM NO, imidazole: Ki of the inhibitor-sensitive phase of a biphasic fit), 69 ± 10 µM. Besides, the “TN (turnover number from the inhibition fit), Hmp” value in assay [2] (100 μM NADH, 1 μM NO) came out at 33 ± 1 s⁻¹.

Turning to `NC(=O)C1=CN([C@@H]2O[C@H](COP(=O)(O)OP(=O)(O)OC[C@H]3O[C@@H](n4cnc5c(N)ncnc54)[C@H](O)[C@@H]3O)[C@@H](O)[C@H]2O)C=CC1` [NADH, nicotinamide adenine dinucleotide], in assay [3] (NO held at 2 μM, NADH up to 200 μM), the “Michaelis constant KmNADH, gFlHb” value is 22 ± 4 µM. For the same compound, the “Michaelis constants of Hmp (KmNO, KmNADH, KmO2)” value (from here on “Michaelis constants of Hmp”) in assay [4] was 4.8 µM.

For the compound `O=NO` [Nitrite, nitrite], the Kd (usually a measure of binding affinity in units of concentration) in assay [5] came to 180 ± 20 µM. Further, the “TN (turnover number from the inhibition fit), gFlHb” value in assay [1] (setting [8]) was 23 ± 1 s⁻¹. Also, the Ki in assay [1] (setting [9]) turned out to be 32 ± 12 µM. The “Effect on NOD activity of Hmp” value in assay [2] (concentrations up to 2 mM) is “not significantly affected; also recorded: no significant effect”. Moreover, the “Optical differences of Hmp in the presence of nitrite (KD)” value in assay [6] is given as “too small to permit any such calculation”.

As for `O=O` [oxygen], the “Michaelis constant of gFlHb for oxygen” value in assay [7] was 22 ± 7 µM. The “Michaelis constants of Hmp” value in assay [4] is listed as “approximately 100 μM”.

As for nitric oxide [NO], in assay [3] (NADH held at 100 μM, NO up to 3 μM), the “Michaelis constant KmNO, gFlHb” value came to 0.65 ± 0.09 µM. In assay [4], the “Michaelis constants of Hmp” value is 0.28 µM.

Values taken from PMC11206828, “Catalytic Differences between Flavohemoglobins of Giardia intestinalis and E. coli” (Pathogens, 2024).
